Data: patent US20200383985A1, “Inhibitors of Protease Activated Receptor-2” (Endosome Therapeutics, Inc., priority 2017, published 2020)

What was measured:
[1] = system: DRG neurons; experiment: Ca2+ assays in DRG neurons; format: cell-based, mouse; settings: trypsin 100 nM
From the text: Proteases may induce pain by activating PAR2 on nociceptors or other cell types. To determine the contribution of PAR2 on nociceptors, mice were bred expressing PAR2 flanked by LoxP sites (Par2^lox/lox) with mice expressing Cre recombinase targeted to nociceptors using the NaV1.8 promoter (Scn10a) (Stirling L. C. et al., Pain 2005, 113(1-2): 27-36). Par2-NaV1.8 mice lacked immunoreactive PAR2 in NaV1.8-positive nociceptors (FIG. 1A). Whereas 31% (20 of 65) of small-diameter (<25 μm) DRG neurons from WT mice responded to trypsin (100 nM) with increased [Ca^2+]i, only 6% (3 of 51) of neurons from Par2-NaV1.8 mice responded (FIGS. 1B, 11A, and 11B). Nociception was assessed by measuring withdrawal responses to stimulation of the plantar surface of the hindpaw with von Frey filaments. […] In Par2-NaV1.8 mice, the initial responses were maintained, but responses after 120 min were diminished. […] Trypsin-induced inflammation was markedly diminished in Par2-NaV1.8 mice.
[Ca^2+]i was measured in DRG neurons from WT and Par2-NaV1.8 mice, as described (Tsvetanova, N. G., et al., Nat. Chem. Biol. 2014, 10(12): 1061-1065). […] Fluorescence of individual neurons was measured at 340 nm and 380 nm excitation and 530 nm using a Nikon Eclipse Ti microscope with 20× magnification and a Photometrics CoolSNAP camera. Data were analyzed using Nikon Ti Element Software. […]

[2] = system: βARR1-RLuc8 or Gαq-RLuc8 and Rab5a-Venus; experiment: BRET of βARR1 and Gαq translocation to early endosomes in HEK293 cells; format: cell-based; settings: trypsin 100 nM
Description: To determine whether trypsin induces translocation of βARR and Gαq to endosomes, we measured BRET between βARR1-RLuc8 or Gαq—RLuc8 and Rab5a-Venus in HEK293 cells. […] Immunofluorescence and structured illumination microscopy were used to localize PAR2-HA, Gαq and early endosomal antigen-1 (EEA1) in HEK-293 cells. In unstimulated cells, PAR2 was confined to the plasma membrane, although Gαq was detected in early endosomes (FIG. 18C). Trypsin (10 nM, 30 min) induced translocation of PAR2 to early endosomes containing Gαq. The results support the hypothesis that trypsin causes assembly of a PAR2/βARR/Gαq signalosome in early endosomes.
HEK293 cells were transiently transfected in 10 cm dishes (˜50% confluency) with: PAR2-RLuc8 (1 μg) and either RIT-Venus or Rab5a-Venus (both 4 μg); Flag-PAR2-HA (1 μg) and βARR1-RLuc8 (1 μg) plus Rab5a-Venus (4 μg); or Flag-PAR2-HA (1 μg) and Gαq-RLuc8 (0.5 μg), Gb (1 μg), Gg (1 μg) and Rab5a-Venus (4 μg). […] RLuc8 and YFP intensities were measured at 475±30 nm and 535±30 nm, respectively, using a LUMIstar Omega Microplate Reader (BMG LabTech) before and after challenge with proteases, biopsy supernatants or vehicle. Data are presented as a BRET ratio, calculated as the ratio of YFP to RLuc8 signals, and normalized to the baseline average, followed by vehicle subtraction. Treatment effects were determined by comparison of area under the curve values.

trypsin
small-diameter DRG neurons responding with increased [Ca2+]i, Par2-NaV1.8 mice ([1]; 3 of 51 neurons): 6% | small-diameter DRG neurons responding with increased [Ca2+]i, WT mice ([1]; 20 of 65 neurons): 31% | βARR1-RLuc8/Rab5a-Venus BRET and Gαq-RLuc8/Rab5a-Venus BRET [2]: stimulated an increase
